Measurements taken from ChEMBL document CHEMBL1201862, “PubChem BioAssay data set” (2004).
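How tested: cells in 96-well plates exposed to compound for 48 hours at five concentrations. Here, GI50 denotes the concentration required for 50% inhibition of growth.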 Calls of active or inactive are those of the source. Cut-off read from the data, not from the text of the source: active = GI50 up to about 1.1 µM and inactive = higher.

What was measured:
Experiment in all cases: NCI anticancer screen, dose series, 48 h
[1] = system: OVCAR-4
[2] = system: HOP-92
[3] = system: SN12C
[4] = system: RPMI-8226
[5] = system: 786-0
[6] = system: Malme-3M
[7] = system: SNB-78
[8] = system: LXFL 529
[9] = system: NCI-H23
[10] = system: LOX IMVI
[11] = system: OVCAR-5
[12] = system: Hs-578T
[13] = system: UACC-257
[14] = system: XF498
[15] = system: MDA-N
[16] = system: SK-MEL-2
[17] = system: SNB-75
[18] = system: UO-31
[19] = system: COLO 205
[20] = system: MOLT-4
[21] = system: M14
[22] = system: SF-295
[23] = system: TK-10
[24] = system: MCF7
[25] = system: DMS-114
[26] = system: HL-60
[27] = system: MDA-MB-231
[28] = system: MDA-MB-435
[29] = system: OVCAR-3
[30] = system: NCI-H522
[31] = system: K562
[32] = system: OVCAR-8
[33] = system: RXF 393
[34] = system: NCI/ADR-RES
[35] = system: SR
[36] = system: SK-MEL-5
[37] = system: HCT-15
[38] = system: RXF 631
[39] = system: PC-3
[40] = system: NCI-H460
[41] = system: UACC-62
[42] = system: DLD-1
[43] = system: IGROV-1
[44] = system: A549
[45] = system: SW-620
[46] = system: HOP-62
[47] = system: SF-268
[48] = system: NCI-H226
[49] = system: HT-29
[50] = system: HCC 2998
[51] = system: HCT-116
[52] = system: BT-549
[53] = system: T47D
[54] = system: ACHN
[55] = system: DMS-273
[56] = system: SNB-19
[57] = system: SK-OV-3
[58] = system: CCRF-CEM
[59] = system: DU-145
[60] = system: HOP-18
[61] = system: CAKI-1
[62] = system: A498
[63] = system: SF-539
[64] = system: EKVX
[65] = system: KM12
[66] = system: U-251
[67] = system: KM-20L2
[68] = system: SK-MEL-28
[69] = system: M19-MEL

CCCN(CCCC(NC(C)=O)C(=O)NCc1ccccc1)C(=O)N(CCCl)N=O (centres undefined)
GI50 [1]: 37.9 µM (inactive) | GI50 [2]: 17.1 µM (inactive) | GI50 [3]: 15.8 µM (inactive) | GI50 [4]: 28.2 µM (inactive) | GI50 [5]: 0.638 µM (active) | GI50 [6]: 22.4 µM (inactive) | GI50 [7]: 15.4 µM (inactive) | GI50 [8]: 18 µM (inactive) | GI50 [9]: 8.75 µM (inactive) | GI50 [10]: 2.11 µM (inactive) | GI50 [11]: 34.4 µM (inactive) | GI50 [12]: > 100 µM (inactive) | GI50 [13]: 28.8 µM (inactive) | GI50 [14]: 9.89 µM (inactive) | GI50 [15]: > 100 µM (inactive) | GI50 [16]: 26.9 µM (inactive) | GI50 [17]: 5.58 µM (inactive) | GI50 [18]: 25.5 µM (inactive) | GI50 [19]: 24.4 µM (inactive) | GI50 [20]: 2.6 µM (inactive) | GI50 [21]: 14.4 µM (inactive) | GI50 [22]: 2.66 µM (inactive) | GI50 [23]: 37.8 µM (inactive) | GI50 [24]: > 100 µM (inactive) | GI50 [25]: 14.4 µM (inactive) | GI50 [26]: 3.97 µM (inactive) | GI50 [27]: > 100 µM (inactive) | GI50 [28]: > 100 µM (inactive) | GI50 [29]: 20.9 µM (inactive) | GI50 [30]: 20.7 µM (inactive) | GI50 [31]: 16.9 µM (inactive) | GI50 [32]: 10.4 µM (inactive) | GI50 [33]: 17.8 µM (inactive) | GI50 [34]: > 100 µM (inactive) | GI50 [35]: 0.564 µM (active) | GI50 [36]: 21.2 µM (inactive) | GI50 [37]: 15.5 µM | GI50 [38]: 17.4 µM (inactive) | GI50 [39]: > 100 µM (inactive) | GI50 [40]: 0.27 µM (active) | GI50 [41]: 1.04 µM (active) | GI50 [42]: 14.5 µM (inactive) | GI50 [43]: 27 µM (inactive) | GI50 [44]: 5.83 µM (inactive) | GI50 [45]: 7.4 µM (inactive) | GI50 [46]: 2.73 µM (inactive) | GI50 [47]: 1.42 µM (inactive) | GI50 [48]: 17.7 µM (inactive) | GI50 [49]: 30.5 µM (inactive) | GI50 [50]: 4.4 µM (inactive) | GI50 [51]: 22.6 µM (inactive) | GI50 [52]: 19.2 µM (inactive) | GI50 [53]: > 100 µM (inactive) | GI50 [54]: 3.09 µM (inactive) | GI50 [55]: 4.52 µM (inactive) | GI50 [56]: 5.13 µM (inactive) | GI50 [57]: 25.7 µM (inactive) | GI50 [58]: 6.87 µM (inactive) | GI50 [59]: > 100 µM (inactive) | GI50 [60]: 22.5 µM (inactive) | GI50 [61]: 17.6 µM (inactive) | GI50 [62]: 13.3 µM (inactive) | GI50 [63]: 0.977 µM (active) | GI50 [64]: 31.7 µM (inactive) | GI50 [65]: 21.1 µM (inactive) | GI50 [66]: 3.53 µM (inactive) | GI50 [67]: 15.7 µM (inactive) | GI50 [68]: 24.3 µM (inactive) | GI50 [69]: 12.2 µM (inactive)
